Assay results as given in ChEMBL document CHEMBL3885861, “Open TG-GATES”.
Values joined by “and” are separate entries in the source; they are usually repeats but may differ in a detail not shown here. Equal values may be shown once.

Species: Rattus norvegicus
Assay: Open TG-GATES - Regimen: Single
Type: toxicity, organism-based, Sprague-Dawley
Design: regimen Single, gender Male, age 6 weeks
Settings: in vivo, po, route gavage; for LIVER: tissue Liver; for ALP / ALT / AST / BUN / CRE / Ca / Cl / GLC / IP / K / LDH / Na / PL / RALB / TC / TP / gamma-GTP / DBIL / TBIL: tissue Plasma; for APTT / Bas / Eos / Fbg / Hb / Ht / Lym / MCH / MCHC / MCV / Mono / Neu / PT / Plat / RBC / Ret / WBC: tissue Blood; for KIDNEY_L / KIDNEY_R / KIDNEY_TOTAL: tissue Kidney
[1] = 0 mg/kg, 24 h, dose level Control

## O=P1(N(CCCl)CCCl)NCCCO1 (stereo unspecified) [CYCLOPHOSPHAMIDE ANHYDROUS]
[1]
  LIVER: 9.8 g and 8.7 g
  ALP: 1816 IU/L and 1543.8 IU/L
  ALT: 45.6 IU/L and 38 IU/L
  AST: 71.2 IU/L and 71.6 IU/L
  BUN: 16.4 mg/dL and 13.6 mg/dL
  CRE: 0.2 mg/dL
  Ca: 10.7 mg/dL and 11.1 mg/dL
  Cl: 104.8 meq/L and 105.8 meq/L
  GLC: 189.6 mg/dL and 178.8 mg/dL
  IP: 7.3 mg/dL and 7.8 mg/dL
  K: 4.4 meq/L
  LDH: 192.2 IU/L and 79 IU/L
  Na: 142.6 meq/L and 141 meq/L
  PL: 161.6 mg/dL and 160.8 mg/dL
  RALB: 2.9 g/dL and 2.6 g/dL
  TC: 82 mg/dL and 82.6 mg/dL
  TP: 5.4 g/dL and 5.6 g/dL
  gamma-GTP: 1.2 IU/L
2 mg/kg, 3 h, dose level Low
  TERMINAL_BW: 191.9 g
  APTT: 22.6 s
  Bas: 0%
  Eos: 0.4%
  Fbg: 284.6 mg/dL
  Hb: 13.1 g/dL
  Ht: 39.2%
  Lym: 85.4%
  MCH: 21.8 pg
  MCHC: 33.3%
  MCV: 65.4 fL
  Mono: 1.4%
  Neu: 12.4%
  PT: 15.9 s
  Plat: 119.4 x10_4/uL
  RBC: 600.4 x10_4/ul
  Ret: 8.8%
  WBC: 81 x10_2/uL
  KIDNEY_L: 0.9 g
  KIDNEY_R: 0.9 g
  KIDNEY_TOTAL: 1.8 g
  LIVER: 9 g
  ALP: 1623.4 IU/L
  ALT: 42.2 IU/L
  AST: 73.4 IU/L
  BUN: 12.4 mg/dL
  CRE: 0.1 mg/dL
  Ca: 10.8 mg/dL
  Cl: 107.2 meq/L
  DBIL: 0 mg/dL
  GLC: 190 mg/dL
  IP: 7.9 mg/dL
  K: 4.1 meq/L
  LDH: 181.4 IU/L
  Na: 144 meq/L
  PL: 119.2 mg/dL
  RALB: 2.9 g/dL
  TBIL: 0.022 mg/dL
  TC: 64.4 mg/dL
  TP: 5.2 g/dL
  gamma-GTP: 1 IU/L
2 mg/kg, 6 h, dose level Low
  TERMINAL_BW: 187.4 g
  APTT: 21.7 s
  Bas: 0%
  Eos: 0.8%
  Fbg: 301.4 mg/dL
  Hb: 13.1 g/dL
  Ht: 39.4%
  Lym: 76.2%
  MCH: 21.4 pg
  MCHC: 33.4%
  MCV: 64.2 fL
  Mono: 2.2%
  Neu: 20.2%
  PT: 16 s
  Plat: 121.6 x10_4/uL
  RBC: 613.6 x10_4/ul
  Ret: 8.5%
  WBC: 94.5 x10_2/uL
  KIDNEY_L: 0.9 g
  KIDNEY_R: 0.9 g
  KIDNEY_TOTAL: 1.7 g
  LIVER: 8 g
  ALP: 1350.2 IU/L
  ALT: 39.2 IU/L
  AST: 69.2 IU/L
  BUN: 10.2 mg/dL
  CRE: 0.1 mg/dL
  Ca: 10.6 mg/dL
  Cl: 106.8 meq/L
  DBIL: 0 mg/dL
  GLC: 184.8 mg/dL
  IP: 9.4 mg/dL
  K: 4.4 meq/L
  LDH: 195.2 IU/L
  Na: 142.8 meq/L
  PL: 136.8 mg/dL
  RALB: 2.9 g/dL
  TBIL: 0.032 mg/dL
  TC: 78.2 mg/dL
  TP: 5.3 g/dL
  gamma-GTP: 1.2 IU/L
2 mg/kg, 9 h, dose level Low
  TERMINAL_BW: 193.9 g
  APTT: 20.9 s
  Bas: 0%
  Eos: 0.6%
  Fbg: 312.6 mg/dL
  Hb: 12.9 g/dL
  Ht: 38.9%
  Lym: 76.4%
  MCH: 21.2 pg
  MCHC: 33.1%
  MCV: 64.1 fL
  Mono: 1.6%
  Neu: 20.6%
  PT: 16.1 s
  Plat: 120.1 x10_4/uL
  RBC: 607.2 x10_4/ul
  Ret: 8.3%
  WBC: 83.5 x10_2/uL
  KIDNEY_L: 0.9 g
  KIDNEY_R: 0.9 g
  KIDNEY_TOTAL: 1.8 g
  LIVER: 8.3 g
  ALP: 1429.8 IU/L
  ALT: 36.4 IU/L
  AST: 69 IU/L
  BUN: 10.2 mg/dL
  CRE: 0.2 mg/dL
  Ca: 10.7 mg/dL
  Cl: 106.4 meq/L
  DBIL: 0 mg/dL
  GLC: 179.2 mg/dL
  IP: 10.1 mg/dL
  K: 4 meq/L
  LDH: 221 IU/L
  Na: 143.4 meq/L
  PL: 142.4 mg/dL
  RALB: 3.1 g/dL
  TBIL: 0.036 mg/dL
  TC: 81.2 mg/dL
  TP: 5.4 g/dL
  gamma-GTP: 1 IU/L
